Article PMC11681892, “Targeting p62 by sulforaphane promotes autolysosomal degradation of SLC7A11, inducing ferroptosis for osteosarcoma treatment” (Redox Biology, 2024)

Assays:
[1] = target: T1, p62 (Homo sapiens, UniProt Q13501); assay: microscale thermophoresis (Monolith NT.[…]); assay type: binding
T1 construct: gene SQSTM1; p62-mCherry plasmid expressed in HEK293T, RIPA lysate (MST); endogenous p62 in human osteosarcoma cells (CETSA); p62 mutants transfected into 143B cells (DARTS)

[2] = target: T1, p62; assay: cellular thermal shift assay (CETSA), western blot; assay type: cell-based; conditions: endogenous p62 in osteosarcoma cells, SFN 20 μM, 2 h, 46-60 °C gradient

T1 sequence (Q13501 2-440): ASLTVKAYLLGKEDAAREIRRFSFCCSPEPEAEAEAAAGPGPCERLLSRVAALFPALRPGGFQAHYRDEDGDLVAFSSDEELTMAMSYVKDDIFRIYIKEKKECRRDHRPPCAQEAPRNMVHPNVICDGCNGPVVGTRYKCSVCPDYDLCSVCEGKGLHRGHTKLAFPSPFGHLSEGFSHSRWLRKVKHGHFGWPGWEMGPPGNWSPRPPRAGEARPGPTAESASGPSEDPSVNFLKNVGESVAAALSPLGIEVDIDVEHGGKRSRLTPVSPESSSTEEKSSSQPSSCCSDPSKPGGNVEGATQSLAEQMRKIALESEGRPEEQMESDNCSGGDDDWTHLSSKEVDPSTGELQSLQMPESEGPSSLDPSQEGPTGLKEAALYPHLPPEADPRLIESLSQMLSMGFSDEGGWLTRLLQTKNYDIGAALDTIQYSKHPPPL

- Kd [1]: 15.5 ± 3.93 µM
Compound: C[S@@+]([O-])CCCCN=C=S [Sulforaphane]
- thermal stability (CETSA) [2]: SFN significantly enhanced the thermal stability of p62 in OS cells (Fig. 6C)
